One experiment has as its target T1, human 5HT2a receptors (Homo sapiens, UniProt P28223).
T1 construct: expressed in transfected cells; host or cells: CHO K1 cells
Description: Competition radioligand binding, 5-HT2A. The gist of the method: (§1)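 Human 5-HT1a and 5-HT2a receptors were expressed in CHO K1 cell membranes. Competition binding was stopped by filtration onto PEI-soaked GF/C filters and counted by liquid scintillation. IC50 values and Hill slopes came from nonlinear regression, and Ki was calculated by Cheng–Prusoff.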

The target of experiment [1] is T2, human D2S dopamine (hD2S-DA) receptors (Homo sapiens, UniProt P14416).
T2 construct: purchased Receptor Biology, Inc. (Beltsville, Md.); host or cells: A9 L cells
T2 sequence (P14416 1-414 isoform P14416-2): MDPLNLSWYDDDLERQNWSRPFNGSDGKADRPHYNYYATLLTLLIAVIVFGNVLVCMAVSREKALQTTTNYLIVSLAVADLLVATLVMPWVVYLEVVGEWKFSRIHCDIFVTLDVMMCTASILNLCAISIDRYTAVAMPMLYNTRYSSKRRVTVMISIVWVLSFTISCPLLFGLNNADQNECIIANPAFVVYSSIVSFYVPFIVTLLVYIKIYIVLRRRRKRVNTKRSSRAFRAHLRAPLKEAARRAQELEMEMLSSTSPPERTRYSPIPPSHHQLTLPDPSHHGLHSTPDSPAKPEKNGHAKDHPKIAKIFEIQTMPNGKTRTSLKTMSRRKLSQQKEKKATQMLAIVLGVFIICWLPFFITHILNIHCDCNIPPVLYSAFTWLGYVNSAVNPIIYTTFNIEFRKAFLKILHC
Description: Competition radioligand binding, hD2S dopamine.

Experiment [2] addresses T3, human 5-HT7B (h5-HT7b) receptors (Homo sapiens, UniProt P34969).
T3 construct: expressed in transfected cells
Description: Competition radioligand binding, h5-HT7b. The gist of the method:
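Membranes from HEK 293 cells stably expressing human 5-HT7b incubated with ~0.2 nM [3H]5-CT and varying compound 2 h at 37 °C in HEPES buffer pH 7.4 with pargyline. Nonspecific binding with 1 μM 5-HT; filtration, scintillation counting; IC50 by nonlinear regression converted to Ki via Cheng–Prusoff.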

In experiment [3] the target is T4, human 5-HT6 (h5-HT6) receptors (Homo sapiens, UniProt P50406).
T4 construct: purchased Receptor Biology, Inc. (Beltsville, Md.); host or cells: HEK-293 cells
T4 sequence (P50406 whole entry): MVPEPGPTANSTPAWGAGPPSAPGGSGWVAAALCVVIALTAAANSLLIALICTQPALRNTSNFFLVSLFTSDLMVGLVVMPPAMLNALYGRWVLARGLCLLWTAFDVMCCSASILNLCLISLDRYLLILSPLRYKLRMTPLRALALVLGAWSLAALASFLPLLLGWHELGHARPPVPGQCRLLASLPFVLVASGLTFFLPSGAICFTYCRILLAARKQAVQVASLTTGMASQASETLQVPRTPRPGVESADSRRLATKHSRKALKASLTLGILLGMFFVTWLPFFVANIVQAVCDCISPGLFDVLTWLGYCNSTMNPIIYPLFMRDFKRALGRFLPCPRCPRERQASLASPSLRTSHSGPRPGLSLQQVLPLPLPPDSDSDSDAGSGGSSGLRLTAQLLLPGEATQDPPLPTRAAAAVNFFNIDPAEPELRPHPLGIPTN
Nature of the experiment: Competition radioligand binding, h5-HT6.

The next experiment deals with T5, human 5-HT1a receptors (Homo sapiens, UniProt P08908).
T5 construct: expressed in transfected cells; host or cells: CHO K1 cells
T5 sequence (P08908 1-422): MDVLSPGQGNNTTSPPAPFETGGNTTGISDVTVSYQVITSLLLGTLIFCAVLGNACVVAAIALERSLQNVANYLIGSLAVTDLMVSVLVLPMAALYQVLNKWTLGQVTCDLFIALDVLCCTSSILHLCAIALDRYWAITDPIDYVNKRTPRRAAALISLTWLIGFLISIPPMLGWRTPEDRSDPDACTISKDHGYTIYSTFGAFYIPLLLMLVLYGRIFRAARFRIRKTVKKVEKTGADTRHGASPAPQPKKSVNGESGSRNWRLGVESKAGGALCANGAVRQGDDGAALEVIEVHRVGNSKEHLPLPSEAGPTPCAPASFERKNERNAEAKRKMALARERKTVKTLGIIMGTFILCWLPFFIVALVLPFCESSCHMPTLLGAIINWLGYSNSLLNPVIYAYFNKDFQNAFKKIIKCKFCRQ
Description: Competition radioligand binding, h5-HT1a. Put shortly:
as §1

The mark [4] stands for this setting: [3H]Ketanserin, membranes of CHO K1 cells, read-out: Ki 5-HT2A.
Where [5] appears, read: [3H]Spiperone, membranes of A9 L cells, read-out: Ki D2.
[6] abbreviates: [3H]5-CT, membranes of HEK 293 cells, read-out: Ki 5-HT7.
The mark [7] stands for this setting: [3H]LSD, membranes of HEK-293 cells, read-out: Ki 5-HT6.
Where [8] appears, read: [3H]5-CT, membranes of CHO K1 cells, read-out: Ki 5-HT1A.

Where two headings read alike, the source gives them in different places. Some results are limits rather than exact numbers.

T3 sequence (P34969 1-432 limits assumed): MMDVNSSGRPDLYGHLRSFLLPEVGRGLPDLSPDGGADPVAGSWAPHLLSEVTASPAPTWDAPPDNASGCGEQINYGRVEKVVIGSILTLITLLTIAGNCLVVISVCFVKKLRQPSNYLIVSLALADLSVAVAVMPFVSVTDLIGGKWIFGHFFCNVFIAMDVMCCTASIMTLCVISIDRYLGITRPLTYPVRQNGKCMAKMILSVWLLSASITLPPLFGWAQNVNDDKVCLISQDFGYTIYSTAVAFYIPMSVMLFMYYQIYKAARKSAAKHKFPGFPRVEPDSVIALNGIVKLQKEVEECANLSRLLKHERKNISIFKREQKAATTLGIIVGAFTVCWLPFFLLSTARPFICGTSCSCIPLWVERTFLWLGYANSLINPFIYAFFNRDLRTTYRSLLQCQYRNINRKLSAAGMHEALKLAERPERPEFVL
T1 sequence (P28223 whole entry): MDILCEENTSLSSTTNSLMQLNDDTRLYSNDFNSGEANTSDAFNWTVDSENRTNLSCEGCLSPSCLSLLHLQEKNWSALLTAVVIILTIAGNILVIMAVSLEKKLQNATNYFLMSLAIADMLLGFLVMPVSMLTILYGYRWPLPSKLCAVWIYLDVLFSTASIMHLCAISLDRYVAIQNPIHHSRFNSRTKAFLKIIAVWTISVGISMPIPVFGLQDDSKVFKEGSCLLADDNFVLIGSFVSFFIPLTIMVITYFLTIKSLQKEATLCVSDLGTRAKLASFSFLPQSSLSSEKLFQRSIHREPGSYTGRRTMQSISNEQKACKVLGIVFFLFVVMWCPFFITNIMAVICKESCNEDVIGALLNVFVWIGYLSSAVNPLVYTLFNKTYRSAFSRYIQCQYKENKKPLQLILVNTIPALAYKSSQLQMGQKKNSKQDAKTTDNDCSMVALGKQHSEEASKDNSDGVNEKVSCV

On to `Cc1ccc(CN2CCC(CNC(=O)NC(=N)NCc3cccc4ccccc34)CC2)cc1` [Example 76, 4-({[({Imino[(1-naphthylmethyl)amino]methyl}amino)carbonyl]amino}methyl)-1-(4-methylbenzyl)piperidine], for which the Ki on human 5HT2a receptors (setting [4]) was 6.8 nM; in experiment [1] (setting [5]), 1900 nM; in experiment [2] (setting [6]), 46 nM; in experiment [3] (setting [7]) it was 3380 nM; at human 5-HT1a receptors (setting [8]) it was 550 nM.

For `N=C(NCc1cccc2ccccc12)NC(=O)NCC1CCN(Cc2ccc(F)cc2)CC1` [Example 77, 1-(4-Fluorobenzyl)-4-({[({imino[(1-naphthylmethyl)amino]methyl}amino)carbonyl]amino}methyl)piperidine], the Ki at human 5HT2a receptors (setting [4]) was found to be 9.5 nM; in experiment [1] (setting [5]) it was 1270 nM; in experiment [2] (setting [6]), 19 nM; in experiment [3] (setting [7]), 3350 nM; at human 5-HT1a receptors (setting [8]), 1090 nM.

Consider `CCOc1ccccc1CNC(=N)NC(=O)N1CCC(Nc2ccccc2)CC1` [Example 78, N-[(4-Anilino-1-piperidinyl)carbonyl]-N′-(2-ethoxybenzyl)guanidine], for which the Ki at human 5HT2a receptors is 170 nM; in experiment [1], more than 2500 nM; in experiment [2], 34 nM; in experiment [3] it was 6870 nM; on human 5-HT1a receptors, more than 4000 nM.

For the compound `N=C(NCc1ccccc1-c1ccccc1)NC(=O)N1CCC(Nc2ccccc2)CC1` [Example 79, N-[(4-Anilino-1-piperidinyl)carbonyl]-N′-([1,1′-biphenyl]-2-ylmethyl)guanidine], the Ki on human 5HT2a receptors is 910 nM; in experiment [1], more than 2500 nM; in experiment [2], 99 nM; in experiment [3], 2400 nM; on human 5-HT1a receptors, more than 4000 nM.

Consider `N=C(NCc1c(Cl)cccc1Oc1ccccc1)NC(=O)N1CCC(Nc2ccccc2)CC1` [Example 80, N-[(4-Anilino-1-piperidinyl)carbonyl]-N′-(2-chloro-6-phenoxybenzyl)guanidine], for which the Ki was 930 nM at human 5HT2a receptors; more than 2500 nM in experiment [1]; 41 nM in experiment [2]; 2300 nM in experiment [3]; 3650 nM on human 5-HT1a receptors.

In the case of `COc1cccc(OC)c1CNC(=N)NC(=O)N1CCC(Nc2ccccc2)CC1` [Example 81, N-[(4-Anilino-1-piperidinyl)carbonyl]-N′-(2,6-dimethoxybenzyl)guanidine], the Ki on human 5HT2a receptors turned out to be 180 nM; in experiment [1], 1920 nM; in experiment [2], 66 nM; in experiment [3], 4700 nM; on human 5-HT1a receptors, 2940 nM.

Turning to `CNC(=O)NC(=N)NCc1c(OC)cccc1OC` [Example 85, 2-{[(Imino{[(methylamino)carbonyl]amino}methyl)amino]methyl}-1,3-dimethoxybenzene], the Ki is 280 nM at human 5HT2a receptors (setting [4]); more than 2500 nM in experiment [1] (setting [5]); 12 nM in experiment [2] (setting [6]); 6340 nM in experiment [3] (setting [7]); 310 nM on human 5-HT1a receptors (setting [8]).

Turning to `CNC(=O)NC(=N)NCc1ccccc1Oc1ccccc1Cl` [Example 86, 1-(2-Chlorophenoxy)-2-{[(imino{[(methylamino)carbonyl]amino}methyl)amino]methyl}benzene], the Ki at human 5HT2a receptors (setting [4]) is 290 nM; in experiment [1] (setting [5]), more than 2500 nM; in experiment [2] (setting [6]) it was 6.3 nM; in experiment [3] (setting [7]), 580 nM; at human 5-HT1a receptors (setting [8]) it was 920 nM.

In the case of `CNC(=O)NC(=N)NCc1cccc(-c2ccccc2)c1` [Example 87, 3-{[(Imino{[(methylamino)carbonyl]amino}methyl)amino]methyl}-1,1′-biphenyl], the Ki was 1020 nM on human 5HT2a receptors (setting [4]); more than 2500 nM in experiment [1] (setting [5]); 80 nM in experiment [2] (setting [6]); 3360 nM in experiment [3] (setting [7]); more than 400 nM at human 5-HT1a receptors (setting [8]).

The Ki is the dissociation constant of the complex between target and ligand, obtained from inhibition or displacement.

These data come from patent publication US20040044037A1, “Amidino-urea serotonin receptor ligands and compositions, their pharmaceutical uses, and methods for their snythesis” (priority 2003, published 2004).
